Laboratory results published in PubChem BioAssay AID602156 (GNF / Scripps Winzeler lab, 2011).
pIC50: −log10 of the molar value. The source made the active and inactive calls. The rule behind the calls is not given here.

test system: P. yoelii liver stage in HepG2-A16-CD81EGFP, imaging; assay: exo-erythrocytic parasite development inhibition – imaging, Malaria Box, P. yoelii, HepG2-A16-CD81EGFP, dose response (AID 602156);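 note: infected cells exposed to compound for 48 hours before fixation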

| Structure (SMILES) | pIC50 | IC50 |
| --- | --- | --- |
| CCC(Sc1nnc(-c2ccc(C)cc2)c(-c2ccc(C)cc2)n1)C(=O)NCCOC (centres undefined) | 6.52 | – |
| CCOC(=O)c1ccc(NC(=O)CSc2nc(NCc3ccccc3)c3ccccc3n2)cc1 | 7.42 | – |
| CC1(C)N=C(N)N=C(N)N1c1ccc(Oc2ccc(Cl)cc2)c(Cl)c1 | 7.14 | – |
| c1ccc(-c2csc(Nc3nc4cc5c(cc4s3)OCO5)n2)nc1 | 7.10 | – |
| COc1ccc(CN2CCOc3ccc(C(C)(O)CN(C)C)cc3C2)cc1C (centres undefined) | 7.17 | – |
| O=C(c1cccc(Cl)c1)N1CCN(c2ccc([N+](=O)[O-])c(NC3CC3)c2)CC1 | 5.49 | – |
| Nc1ccc(N2CCCCCC2)cc1 | 5.71 | – |
| O=C(NC1CC1)C1CCN(c2cccc3c2C(=O)N(Cc2cccc(C(F)(F)F)c2)C3=O)CC1 | 7.53 | – |
| CCc1nc(N)nc(N)c1-c1ccc(Cl)cc1 | 8.67 | – |
| c1ccc(OCCOc2ccc(Nc3c4ccccc4nc4ccccc34)cc2)cc1 | 6.25 | – |
| CCOC(=O)c1ccc(NCc2c(C)[nH]c3ccccc3c2=O)cc1 | 6.86 | – |
| Cc1ccc(Nc2nc(NCc3ccccc3)c3ccccc3n2)cc1 | 6.56 | – |
| Cc1cc(C)nc(N=C(N)Nc2cccc(O)c2)n1 | 6.82 | – |
| CCCCn1c(N=Nc2c(O)[nH]c3ccccc23)nc2c1c(=O)[nH]c(=O)n2C | – | > 10000 nM (inactive) |
| COc1ccc2c(C)nc(Nc3nc(C)cc(-c4ccccc4)n3)nc2c1 | 5.18 | – |
| O=c1c2c([nH]c3ccccc13)CCCCCCCCCC2 | 7.00 | – |
| C/C=C/[P+](c1ccccc1)(c1ccccc1)c1ccccc1 | 7.31 | – |
| CCCCCCCn1c2c(c(=N)c3ccccc31)CCC2 | 7.12 | – |
| CN(C)c1oc(-c2ccc(Cl)cc2Cl)nc1[P+](c1ccccc1)(c1ccccc1)c1ccccc1 | 6.89 | – |
| CCCn1c(-c2cccc(Br)c2)nc2ccccc21 | – | > 8910 nM (inactive) |
| COc1ccc2nc(C)cc(Nc3ccc(Oc4ccc5ccccc5c4Cl)c(Cl)c3)c2c1 | 6.94 | – |
| COc1ccccc1CNC(=O)c1nn(-c2ccc(Cl)cc2)c(=O)c2ccccc12 | – | > 10000 nM (inactive) |

| Structure (SMILES) | pIC50 | IC50 |
| --- | --- | --- |
| CCCCN(CC)CCNC(=O)C1c2ccccc2C(=O)N(Cc2ccc(F)cc2)C1c1ccc(OC)cc1 (centres undefined) | 7.05 | – |
| CCCN(CCC)CCCNc1ccc(C(=O)Nc2ccc(C)c(F)c2)cc1[N+](=O)[O-] | 6.19 | – |
| CCOC(=O)C1(CC)CC(C)(C(=O)C[n+]2cccc(Br)c2)OC1=O (centres undefined) | – | > 10000 nM (inactive) |
| Cc1ccc(-c2cc(C(=O)OCC(=O)c3cccc([N+](=O)[O-])c3)c3cc(C)ccc3n2)cc1 | – | > 10000 nM (inactive) |
| CCCCCC[n+]1ccccc1/C=C/c1ccc(N(C)C)cc1 | 7.25 | – |
| CCCCCCCC[n+]1c(C)n(CC)c2cc(C(=O)OCC)ccc21 | 6.00 | – |
| O=C1C2=C(Nc3ccccc3SC2c2cccs2)c2ccccc21 (centres undefined) | 7.04 | – |
| COC(OC)C(C)=NNC(N)=S | 8.31 | – |
| CCCCNC(=O)C(CC)Sc1nnc(-c2ccc(C)cc2)c(-c2ccc(C)cc2)n1 (centres undefined) | 6.54 | – |
| CC(=O)N1c2ccc(C)cc2C(C)(c2ccccc2)CC1(C)C (centres undefined) | 5.90 | – |
| COc1cccc(NC(=O)Cn2c(C)c(C#N)c3ccccc32)c1 | – | > 9960 nM (inactive) |
| CC(C)(C)OC(=O)N1CCC(c2c(C(=O)Nc3cccc(C(F)(F)F)c3)cnn2-c2ccc(F)cc2F)CC1 | 5.51 | – |
| COc1ccc2[nH]c3ccccc3c(=O)c2c1 | 6.87 | – |
| Cc1ccc(-c2[nH]n3c(=O)c4c(nc3c2C)CCCC4)cc1 | 7.95 | – |
| COC(=O)C1=C(C)NC2=C(C(=O)CC(c3ccccc3Cl)C2)C1c1ccc([N+](=O)[O-])cc1 (centres undefined) | 6.07 | – |
| CCCC(=O)NC(c1ccc(Cl)cc1)c1ccc2cccnc2c1O (centres undefined) | 6.72 | – |
| O=C(Nc1ccc(-c2ccc(Cl)cc2)cc1)c1cccs1 | 6.82 | – |
| CCC(C)(C)c1ccc(OCCOCC[n+]2ccccc2)c(C(C)(C)CC)c1 | 7.02 | – |
| Brc1ccc(Nc2nc(NCc3ccco3)c3ccccc3n2)cc1 | 6.79 | – |
| CCCN(C(=O)Nc1c(C(C)C)cccc1C(C)C)C(CC)c1nc2ccccc2c(=O)n1-c1cccc(C)c1 (centres undefined) | 5.20 | – |
| CCCCCCCc1cc(O)c2c3c(c(=O)oc2c1)CCC(C)C3 (centres undefined) | 6.61 | – |
| CCN(CC)CCCC(C)Nc1c2ccc(Cl)cc2nc2ccc(OC)cc12 (centres undefined) | 6.78 | – |

| Structure (SMILES) | pIC50 | IC50 |
| --- | --- | --- |
| CCCCSCC(O)CN1CCCCC1 (centres undefined) | – | > 10000 nM (inactive) |
| C[C@@H]1CCC[C@@H](C[C@H]2Cc3cc(O)cc(O)c3C(=O)O2)O1 | 6.95 | – |
| O=C(Nc1ccc2oc(-c3cccc4ccccc34)nc2c1)c1ccc([N+](=O)[O-])o1 | 7.14 | – |
| Cc1ccc(-n2c(-c3ccccc3)cc(C=NNC(=O)c3cccc(-n4c(C)ccc4C)c3)c2-c2ccccc2)cc1 | 7.32 | – |
| CCN1CCN(c2c(C(=O)c3ccccc3)cnc3cc(OC)c(OC)cc23)CC1 | 6.44 | – |
| CCOC(=O)c1cnc2ccc(OC)cc2c1NCc1cccs1 | 6.72 | – |
| CC[n+]1c(/C=C/C=C2\N(C)c3ccccc3C2(C)C)n(-c2ccccc2)c2cc(Cl)ccc21 | 7.87 | – |
| O=C(c1cnsn1)N1CCCC(COc2cccc(CN3CCC(Cc4ccccc4)CC3)c2)C1 (centres undefined) | 6.22 | – |
| C=CCN1C(=Cc2cc[n+](C)cc2)Sc2ccccc21 | 7.88 | – |
| CCOc1ccc(Nc2nc(NCc3ccco3)c3ccccc3n2)cc1 | 6.98 | – |
| CCOC(=O)C1=C(C)NC2=C(C(=O)C(C(=O)OCC)C(c3ccccc3OC)C2)C1c1ccc([N+](=O)[O-])cc1 (centres undefined) | 6.47 | – |
| CC(=O)Nc1cccc(-c2cncc(-c3ccc(C(=O)O)cc3)n2)c1 | – | > 10000 nM (inactive) |
| CCOc1ccc(Nc2nc(NCc3ccccc3)c3ccccc3n2)cc1 | 6.32 | – |
| Cc1cn2c3ccccc3n(CCN3CCCC3)c2n1 | 5.97 | – |
| CC(C)NC(=O)c1cc(NC(=O)c2cccs2)ccc1N1CCc2ccccc2C1 | 7.13 | – |
| CCOc1ccc2[nH]c(=O)c(CN(CCN(CC)CC)C(=S)NCCCN(CC)CC)cc2c1 | 5.66 | – |
| Cc1ccc(NC(=O)C2C3C=CC4(O3)C2C(=O)N(CCCN2CCOCC2)C4C(=O)NC2CCCC(C)C2C)cc1Cl (centres undefined) | – | > 10000 nM (inactive) |
| COc1ccc2cc3[n+](cc2c1OC)CCc1cc2c(cc1-3)OCO2 | 6.26 | – |
| O=[N+]([O-])c1ccc(N2CCCN(C(=S)Nc3ccc(F)cc3Br)CC2)nc1 | 5.34 | – |
| CCCCC(CC)C(=O)N1CCN(C(CC)c2nc3ccccc3c(=O)n2C)CC1 (centres undefined) | 6.64 | – |
| O=[N+]([O-])c1cccc(C(Nc2nccs2)c2ccc3cccnc3c2O)c1 (centres undefined) | 6.45 | – |
| OCCNc1nc(Nc2ccccc2)nc2ccccc12 | 7.32 | – |

| Structure (SMILES) | pIC50 | IC50 |
| --- | --- | --- |
| O=C(Nc1c2ccccc2nc2ccccc12)c1cc(Cl)ccc1O | 6.74 | – |
| CCOC(=O)c1cnc2ccc(OC)cc2c1Cl | 6.39 | – |
| O=C(NC(=C(Cl)Cl)[P+](c1ccccc1)(c1ccccc1)c1ccccc1)c1ccc(F)cc1 | 7.84 | – |
| CCCCN(CCCC)S(=O)(=O)c1ccc(NC(=O)c2ccco2)cc1 | 6.42 | – |
| Brc1ccc(-c2c[n+]3c(n2-c2ccccc2)SCC3)cc1 | 6.08 | – |
| CCN1C(=O)N(CC)C(NNC(N)=S)C1NNC(N)=S (centres undefined) | 7.16 | – |
| FC(F)(F)c1ccccc1NC(=S)N1CCCN(c2nc3ccc(Cl)cc3s2)CC1 | 5.79 | – |
| COc1ccc(C2N(Cc3ccccc3)c3ccccc3N2Cc2ccccc2)cc1 | 6.92 | – |
| c1ccc(Cc2cc[n+](Cc3ccccc3)cc2)cc1 | 5.34 | – |
| COc1ccc(C2Sc3ccccc3NC3=C2C(=O)c2ccccc23)cc1 (centres undefined) | 6.15 | – |
| CCc1cc2c(cc1-c1csc(N=C(N)N)n1)C(C)(C)CCC2(C)C | 5.54 | – |
| CC(=O)N(C)C1=C(N2CCOCC2)C(=O)c2ccccc2C1=O | 6.64 | – |
| CCCN(CCC)[P+](CCC)(c1ccc([P+](CCC)(N(CCC)CCC)N(CCC)CCC)cc1)N(CCC)CCC | 6.55 | – |
| O=C(Nc1ccc(C(F)(F)F)cc1)c1ccc(NCCCN2CCCCCC2)c([N+](=O)[O-])c1 | 6.35 | – |
| C=CC[N+]1(CC#Cc2cccc3ccccc23)CCCCC1 | 6.04 | – |
| Cc1cc(OC(C)C(=O)N2CCc3ccccc32)ccc1Cl (centres undefined) | 6.11 | – |
| CCOc1ccc(N2C(N)=NC(N)=NC2(C)C)cc1 | 7.33 | – |
| CCOC(=O)C1=C(C)NC2=C(C(=O)C(C(=O)OCC)C(c3cccc(OC)c3)C2)C1c1cc(OC)c(OC)c(OC)c1 (centres undefined) | 6.63 | – |
| CCOc1ccc(Nc2cc(=O)oc3ccccc23)cc1 | 6.30 | – |
| Cc1cc(NC(c2cccc(Br)c2)c2ccc3cccnc3c2O)no1 (centres undefined) | 6.83 | – |
| COc1cccc(N2C(N)=NC(N)=NC2(C)C)c1 | 7.53 | – |
| Cc1cccc2c1[nH]c1nc(SCC(C)C)nnc12 | 6.82 | – |

| Structure (SMILES) | pIC50 | IC50 |
| --- | --- | --- |
| Cc1ccc2cc(C)c(Nc3ccc(Cl)cc3)nc2c1 | 6.83 | – |
| Cc1nc2ccc(NC(=O)C3CC3)cc2c(=O)n1Cc1ccc(Cl)cc1 | – | > 10000 nM (inactive) |
| COc1cccc(Nc2nc(NCCO)c3ccccc3n2)c1 | 7.21 | – |
| CCc1ccccc1N=C1c2c(cccc2[N+](=O)[O-])C(=O)C1C(C)=O (centres undefined) | 5.69 | – |
| Cn1cnnc1SCC(=O)Nc1ccccc1C(F)(F)F | – | > 10000 nM (inactive) |
| S=C(NN=Cc1ccccn1)NC1CC2CC1C1C=CCC21 (centres undefined) | 7.59 | – |
| N#Cc1c2c(c(N3CCN(c4ccccn4)CC3)n3c1nc1ccccc13)CCC2 | – | > 10000 nM (inactive) |
| c1ccc(CNc2nc(Nc3ccccc3)nc3ccccc23)cc1 | 6.82 | – |
| CCOc1ccc(CN(C(=O)COc2ccc(Cl)cc2)C(C)CCCN(CC)CC)cc1 (centres undefined) | 7.69 | – |
| CCCCOc1ccc(N(C(C)=O)C2=C(N3CCOCC3)C(=O)c3ccccc3C2=O)cc1 | 5.75 | – |
| O=C1C(Nc2ccc(O)cc2)=CC(=NS(=O)(=O)c2cccs2)c2ccccc21 | 7.07 | – |
| Cc1ccc2[nH]c(C)c(Br)c(=O)c2c1 | 6.60 | – |
| O=c1c2ccccc2[nH]c2ccc(I)cc12 | 6.98 | – |
| Oc1cccc2ccc[n+](CC(O)Cn3c4ccccc4c4ccccc43)c12 (centres undefined) | 6.51 | – |
| Nc1ccc(-c2nc3cc(Oc4ccc(Oc5ccc6[nH]c(-c7ccc(N)cc7)nc6c5)cc4)ccc3[nH]2)cc1 | 6.50 | – |
| O=C1C2=C(Nc3ccccc3SC2c2ccc(Br)cc2)c2ccccc21 (centres undefined) | 6.49 | – |
| C1CCC(NP2(NC3CCCCC3)=NP(NC3CCCCC3)(NC3CCCCC3)=NP(NC3CCCCC3)(NC3CCCCC3)=N2)CC1 | 7.73 | – |
| COc1ccc(C2CC(=O)C3=C(C2)NC(C)=C(C(=O)OC2CCCC2)C3c2ccc([N+](=O)[O-])cc2)cc1OC (centres undefined) | 5.41 | – |
| CC(=O)N(C1=C(N2CCOCC2)C(=O)c2ccccc2C1=O)c1cccc(Cl)c1 | 6.13 | – |
| CCCCc1c(C)[nH]c2c(OC)cccc2c1=O | 6.25 | – |
| COc1ccc(C2CC(=O)C3=C(C2)NC(C)=C(C(=O)OC2CCCC2)C3c2cccc(C)c2)cc1OC (centres undefined) | 6.11 | – |
